IC50 and EC50 data for 24 molecules are collected here from patent publication US7998951B2, “HCV NS5B inhibitors” (Bristol-Myers Squibb Company, priority 2007, dated 2011).

pEC50, pIC50: −log10 of the molar value.

One may read the pIC50 as the IC50 on a negative log10 scale, so that one unit is a factor of ten. A low value points to a large IC50. By pEC50 is commonly meant the EC50 on a negative log10 scale, so that one unit is a factor of ten.

The target in assay [1] is T1, HCV NS5B RdRp genotype 1b (Hepatitis C virus genotype 1b, UniProt Q9WMX2).
T1 construct: The protein was expressed with an 18 amino acid C-terminal truncation to enhance the solubility; made in house; host or cells: E. coli BL21 (DE3)
T1 sequence (Q9WMX2 2420-2992): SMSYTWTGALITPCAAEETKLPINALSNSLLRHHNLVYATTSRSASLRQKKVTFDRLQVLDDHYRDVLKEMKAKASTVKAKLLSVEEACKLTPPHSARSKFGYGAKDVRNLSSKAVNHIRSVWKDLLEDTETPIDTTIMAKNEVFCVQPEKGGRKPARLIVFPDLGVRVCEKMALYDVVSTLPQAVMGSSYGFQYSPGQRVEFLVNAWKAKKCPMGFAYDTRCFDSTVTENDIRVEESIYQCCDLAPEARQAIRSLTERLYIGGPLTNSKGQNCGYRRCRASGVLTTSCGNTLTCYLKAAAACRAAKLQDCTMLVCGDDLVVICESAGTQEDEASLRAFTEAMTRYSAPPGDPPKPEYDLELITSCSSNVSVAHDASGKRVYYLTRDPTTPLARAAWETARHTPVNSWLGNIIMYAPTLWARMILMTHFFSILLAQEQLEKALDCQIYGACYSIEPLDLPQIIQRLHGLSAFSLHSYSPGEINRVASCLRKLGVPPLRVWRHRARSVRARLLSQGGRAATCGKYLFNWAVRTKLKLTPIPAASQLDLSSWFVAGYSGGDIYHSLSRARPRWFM
The assay can be described thus: HCV NS5B RdRp enzyme assay (preincubation protocol). The format is biochemical. The method, then: HCV NS5B RdRp cloning, expression, and purification. The cDNA encoding the NS5B protein of HCV, genotype 1b, was cloned into the pET21a expression vector. The protein was expressed with an 18 amino acid C-terminal truncation to enhance the solubility. The E. coli competent cell line BL21 (DE3) was used for expression of the protein. Cultures were grown at 37° C. for ˜4 hours until the cultures reached an optical density of 2.0 at 600 nm. The cultures were cooled to 20° C. and induced with 1 mM IPTG. Fresh ampicillin was added to a final concentration of 50 μg/ml and the cells were grown overnight at 20° C.
Cell pellets (3 L) were lysed for purification to yield 15-24 mgs of purified NS5B. The lysis buffer consisted of 20 mM Tris-HCl, pH 7.4, 500 mM NaCl, 0.5% triton X-100, 1 mM DTT, 1 mM EDTA, 20% glycerol, 0.5 mg/ml lysozyme, 10 mM MgCl2, 15 ug/ml deoxyribonuclease I, and Complete TM protease inhibitor tablets (Roche). After addition of the lysis buffer, frozen cell pellets were resuspended using a tissue homogenizer. To reduce the viscosity of the sample, aliquots of the lysate were sonicated on ice using a microtip attached to a Branson sonicator. The sonicated lysate was centrifuged at 100,000×g for 1 hr at 4° C. and filtered through a 0.2 μm filter unit (Corning).
The protein was purified using three sequential chromatography steps: Heparin sepharose CL-6B, polyU sepharose 4B, and Hitrap SP sepharose (Pharmacia). The chromatography buffers were identical to the lysis buffer but contained no lysozyme, deoxyribonuclease I, MgCl2 or protease inhibitor and the NaCl concentration of the buffer was adjusted according to the requirements for charging the protein onto the column. Each column was eluted with a NaCl gradient which varied in length from 5-50 column volumes depending on the column type. After the final chromatography step, the resulting purity of the enzyme is >90% based on SDS-PAGE analysis. The enzyme was aliquoted and stored at −80° C.
Standard HCV NS5B RdRp enzyme assay. HCV RdRp genotype 1b assays were run in a final volume of 60 μl in 96 well plates (Costar 3912). The assay buffer is composed of 20 mM Hepes, pH 7.5, 2.5 mM KCl, 2.5 mM MgCl2, 1 mM DTT, 1.6 U RNAse inhibitor (Promega N2515), 0.1 mg/ml BSA (Promega R3961), and 2% glycerol. All compounds were serially diluted (3-fold) in DMSO and diluted further in water such that the final concentration of DMSO in the assay was 2%. HCV RdRp genotype 1b enzyme was used at a final concentration of 28 nM. A polyA template was used at 6 nM, and a biotinylated oligo-dT12 primer was used at 180 nM final concentration. Template was obtained commercially (Amersham 27-4110). Biotinylated primer was prepared by Sigma Genosys. 3H-UTP was used at 0.6 μCi (0.29 μM total UTP). Reactions were initiated by the addition of enzyme, incubated at 30° C. for 60 min, and stopped by adding 25 μl of 50 mM EDTA containing SPA beads (4 μg/μl, Amersham RPNQ 0007). Plates were read on a Packard Top Count NXT after >1 hr incubation at room temperature.
Modified HCV NS5B RdRp enzyme assay. A modified enzyme assay was performed essentially as described for the standard enzyme assay except for the following: The biotinylated oligo dT12 primer was precaptured on streptavidin-coated SPA beads by mixing primer and beads in assay buffer and incubating at room temperature for one hour. Unbound primer was removed after centrifugation. The primer-bound beads were resuspended in 20 mM Hepes buffer, pH 7.5 and used in the assay at final concentrations of 20 nM primer and 0.67 μg/μl beads. Order of addition in the assay: enzyme (14 nM) was added to diluted compound followed by the addition of a mixture of template (0.2 nM), 3H-UTP (0.6 μCi, 0.29 μM), and primer-bound beads, to initiate the reaction; concentrations given are final. Reactions were allowed to proceed for 4 hours at 30° C.
IC50 values for compounds were determined using seven different [I]. […]

A further assay has as its system HCV replicon cells. Put plainly: HCV replicon FRET assay. The class given is cell-based. As to conditions: Hepatitis C virus. The source says: FRET Assay Preparation. To perform the HCV FRET screening assay, 96-well cell culture plates were used. The FRET peptide (Anaspec, Inc.) (Taliani et al., Anal. Biochem. 1996, 240, 60-67) contains a fluorescence donor, EDANS, near one end of the peptide and an acceptor, DABCYL, near the other end. The fluorescence of the peptide is quenched by […] resonance energy transfer (RET) between the donor and the acceptor, but as the NS3 protease cleaves the peptide the products are released from RET quenching and the fluorescence of the donor becomes apparent. The assay reagent was made as follows: 5× cell Luciferase cell culture lysis reagent from Promega (#E153A) diluted to 1× with dH2O, NaCl added to 150 mM final, the FRET peptide diluted to 20 uM final from a 2 mM stock.
To prepare plates, HCV replicon cells, with or without a Renilla luciferase reporter gene, were trypsinized and placed into each well of a 96-well plate with titrated test compounds added in columns 3 through 12; columns 1 and 2 contained a control compound (HCV protease inhibitor), and the bottom row contained cells without compound. The plates were then placed in a CO2 incubator at 37° C.
Assays. Subsequent to addition of the test compounds described above (FRET Assay Preparation), at various times the plate was removed and Alamar blue solution (Trek Diagnostics, #00-100) was added per well as a measure of cellular toxicity. After reading in a Cytoflour 4000 instrument (PE Biosystems), plates were rinsed with PBS and then used for FRET assay by the addition of 30 ul of the FRET peptide assay reagent described above (FRET Assay Preparation) per well. The plate was then placed into the Cytoflour 4000 instrument which had been set to 340 excite/490 emission, automatic mode for 20 cycles and the plate read in a kinetic mode. Typically, the signal to noise using an endpoint analysis after the reads was at least three-fold. Alternatively, after Alamar blue reading, plates were rinsed with PBS, 50 ul of DMEM (high glucose) without phenol red was added and plates were then used for luciferase assay using the Promega Dual-Glo Luciferase Assay System.
Compound analysis was determined by quantification of the relative HCV replicon inhibition and the relative cytotoxicity values. To calculate cytoxicity values, the average Alamar Blue fluorescence signals from the control wells were set as 100% non-toxic. The individual signals in each of the compound test wells were then divided by the average control signal and multiplied by 100% to determine […]. To calculate the HCV replicon inhibition values, an average background value was obtained from the two wells containing the highest amount of HCV protease inhibitor at the end of the assay period. These numbers were similar to those obtained from naïve Huh-7 cells.
The background numbers were then subtracted from the average signal obtained from the control wells and this number was used as 100% activity. The individual signals in each of the compound test wells were then divided by the averaged control values after background subtraction and multiplied by 100% to determine percent activity. EC50 values for a protease inhibitor titration were calculated as the concentration which caused a 50% reduction in FRET or luciferase activity. The two numbers generated for the compound plate, percent cytotoxicity and percent activity were used to determine compounds of interest for further analysis.
On the technique in general: In antiviral work, replicon cells carry a viral genome segment that copies itself.

The molecule `COC(=O)c1ccc2c(C3CCCCC3)c(-c3ccccc3)n3c2c1CCC3` showed a pIC50 in assay [1] of under 5.00. In addition, the negative-log EC50 (pEC50) in the assay with HCV replicon cells is under 6.92.
For `O=C(O)c1ccc2c(C3CCCCC3)c(-c3ccccc3)n3c2c1CCCC3`, in that order: under 6.00 and under 6.00.
In assay [1], `O=C(O)c1ccc2c(C3CCCCC3)c(-c3ccccc3)n3c2c1C=CCC3` showed a pIC50 of under 6.00. The molecule also showed a pEC50 in the assay with HCV replicon cells of under 6.00.
Regarding `COC(=O)c1ccc2c(C3CCCCC3)c(-c3ccccc3)n3c2c1C=CCC3`, in assay [1], the pIC50 was under 5.00. This molecule gave a pEC50 in the assay with HCV replicon cells of under 6.92.
As to `O=C(O)c1ccc2c(C3CCCCC3)c(-c3ccccc3)n3c2c1CCC3C(=O)N1CCOCC1` (stereo not drawn), the pIC50 in assay [1] is 6.00 to 7.52. In the assay on HCV replicon cells, this molecule showed a pEC50 of 6.00 to 7.52.
In the case of `COC(=O)c1ccc2c(C3CCCCC3)c(-c3ccccc3)n3c2c1CCC3C(=O)OC` (stereo not drawn), in assay [1], the pIC50 is under 5.00. This molecule also gave a pEC50 in the assay on HCV replicon cells of under 6.00.
For `COC(=O)c1ccc2c(C3CCCCC3)c(-c3ccccc3)n3c2c1CCC3C(=O)O` (stereo not drawn), in that order: under 6.00 and under 6.92.
The like results for `COC(=O)c1ccc2c(C3CCCCC3)c(-c3ccccc3)n3c2c1CCC3C(=O)N1CCOCC1` (stereo not drawn) were, in that order, under 6.00 and under 6.92.
For `CN(C)S(=O)(=O)NC(=O)c1ccc2c(C3CCCCC3)c(-c3ccccc3)n3c2c1CCC3C(=O)N1CCOCC1` (stereo not drawn), in that order: 5.00 to 6.00 and 5.00 to 6.00.
In turn, `CCOC(=O)/C=C/c1ccc(NC(=O)C2(NC(=O)c3ccc4c(C5CCCCC5)c(-c5ccccc5)n5c4c3CCC5C(=O)N3CCOCC3)CCCC2)cc1` (stereo not drawn) showed a pIC50 in assay [1] of 5.00 to 6.00. The molecule also had a negative logarithm of the EC50 (pEC50) with HCV replicon cells of 6.00 to 7.52.
For `O=C(O)/C=C/c1ccc(NC(=O)C2(NC(=O)c3ccc4c(C5CCCCC5)c(-c5ccccc5)n5c4c3CCC5C(=O)N3CCOCC3)CCCC2)cc1` (stereo not drawn), in that order: 6.00 to 7.52 and 5.00 to 6.00.
The like results for `O=C(O)c1ccc2c(C3CCCCC3)c(-c3ccccc3)n3c2c1OCC3` were, in that order, 6.00 to 7.52 and 5.00 to 6.00.
The like results for `CN(C)S(=O)(=O)NC(=O)c1ccc2c(C3CCCCC3)c(-c3ccccc3)n3c2c1OCC3` were, in that order, 5.00 to 6.00 and 5.00 to 6.00.
With `CCOC(=O)/C=C/c1ccc(NC(=O)C2(NC(=O)c3ccc4c(C5CCCCC5)c(-c5ccccc5)n5c4c3OCC5)CCCC2)cc1`, the pIC50 in assay [1] is 6.00 to 7.52. Moreover, the pEC50 in the assay on HCV replicon cells was under 6.00.
Molecule `O=C(O)/C=C/c1ccc(NC(=O)C2(NC(=O)c3ccc4c(C5CCCCC5)c(-c5ccccc5)n5c4c3OCC5)CCCC2)cc1` gave a negative logarithm of the IC50 (pIC50) in assay [1] of 6.00 to 7.52. Besides, the negative logarithm of the EC50 (pEC50) in the assay with HCV replicon cells is 6.00 to 7.52.
In assay [1], `O=C(NS(=O)(=O)C1CC1)c1ccc2c(C3CCCCC3)c(-c3ccccc3)n3c2c1CCC3C(=O)N1CCOCC1` (stereo not drawn) had a pIC50 of 5.00 to 6.00. This molecule also had a pEC50 in the assay on HCV replicon cells of under 5.00.
For `C[C@@H]1CN(C(=O)C2CCc3c(C(=O)O)ccc4c(C5CCCCC5)c(-c5ccccc5)n2c34)C[C@H](C)O1` (stereo partly drawn), in that order: under 6.00 and 5.00 to 6.00.
Take `O=C(O)c1ccc2c(C3CCCCC3)c(-c3ccccc3)n3c2c1CCC3C(=O)O` (stereo not drawn): the pIC50 in assay [1] is under 6.00. In the assay with HCV replicon cells, this molecule had a negative-log EC50 (pEC50) of under 5.00.
For `COC(=O)c1ccc2c(C3CCCCC3)c(-c3ccccc3)n3c2c1OCC3`, in that order: 5.00 to 6.00 and under 6.92.
In the case of `O=C(O)/C=C\c1ccc(NC(=O)C2(NC(=O)c3ccc4c(C5CCCCC5)c(-c5ccccc5)n5c4c3OCC5)CCCC2)cc1`, the pIC50 in assay [1] is 6.00 to 7.52. Besides, the pEC50 with HCV replicon cells was 6.00 to 7.52.
`COc1ccc(-c2c(C3CCCCC3)c3ccc(C(=O)NC4(C(=O)Nc5ccc(C=CC(=O)O)cc5)CCCC4)c4c3n2CCO4)cc1` had a pIC50 in assay [1] of 6.00 to 7.52. This molecule also gave a pEC50 in the assay on HCV replicon cells of 6.00 to 7.52.
`CCOC(=O)/C=C/c1ccc(NC(=O)C2(NC(=O)c3ccc4c(C5CCCCC5)c(-c5ccc(OC)cc5)n5c4c3OCC5)CCCC2)cc1` had a negative-log IC50 (pIC50) in assay [1] of 6.00 to 7.52. The pEC50 with HCV replicon cells was under 6.00.
The like results for `COC(=O)c1ccc2c(C3CCCCC3)c(-c3ccccc3)n3c2c1OC(C(=O)OC)C3` (stereo not drawn) were, in that order, under 6.00 and under 6.00.
For `COc1ccc(-c2c(C3CCCCC3)c3ccc(C(=O)O)c4c3n2CCO4)cc1`, in that order: 6.00 to 7.52 and 5.00 to 6.00.
